Key:
[1] = molecular target: T1, EGFR^wt (Homo sapiens, UniProt P00533); experiment: kinase inhibitory activity test (ELISA), EGFR^WT; type: biochemical; settings: ATP 5 μM, 1 hour at 37° C.
T1 construct: purchased Millipore
Summary of the method: (§1)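 ELISA on poly(Glu,Tyr)4:1-coated plates; kinase reaction with 5 μM ATP (final) in 50 mM HEPES pH 7.4, 50 mM MgCl2, 5 mM MnCl2, 0.2 mM Na3VO4, 1 mM DTT, 1 h at 37° C. Phosphotyrosine detected via PY99/HRP and OPD at 490 nm; IC50 by four-parameter fit.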

[2] = molecular target: T2, EGFR^T790M/L858R (Homo sapiens, UniProt P00533, L858R/T790M); experiment: kinase inhibitory activity test (ELISA), EGFR^T790M/L858R; type: biochemical; settings: ELISA, ATP 5 μM, 1 hour at 37° C.
T2 construct: purchased Millipore
T2 sequence (P00533 25-1210 T790M/L858R): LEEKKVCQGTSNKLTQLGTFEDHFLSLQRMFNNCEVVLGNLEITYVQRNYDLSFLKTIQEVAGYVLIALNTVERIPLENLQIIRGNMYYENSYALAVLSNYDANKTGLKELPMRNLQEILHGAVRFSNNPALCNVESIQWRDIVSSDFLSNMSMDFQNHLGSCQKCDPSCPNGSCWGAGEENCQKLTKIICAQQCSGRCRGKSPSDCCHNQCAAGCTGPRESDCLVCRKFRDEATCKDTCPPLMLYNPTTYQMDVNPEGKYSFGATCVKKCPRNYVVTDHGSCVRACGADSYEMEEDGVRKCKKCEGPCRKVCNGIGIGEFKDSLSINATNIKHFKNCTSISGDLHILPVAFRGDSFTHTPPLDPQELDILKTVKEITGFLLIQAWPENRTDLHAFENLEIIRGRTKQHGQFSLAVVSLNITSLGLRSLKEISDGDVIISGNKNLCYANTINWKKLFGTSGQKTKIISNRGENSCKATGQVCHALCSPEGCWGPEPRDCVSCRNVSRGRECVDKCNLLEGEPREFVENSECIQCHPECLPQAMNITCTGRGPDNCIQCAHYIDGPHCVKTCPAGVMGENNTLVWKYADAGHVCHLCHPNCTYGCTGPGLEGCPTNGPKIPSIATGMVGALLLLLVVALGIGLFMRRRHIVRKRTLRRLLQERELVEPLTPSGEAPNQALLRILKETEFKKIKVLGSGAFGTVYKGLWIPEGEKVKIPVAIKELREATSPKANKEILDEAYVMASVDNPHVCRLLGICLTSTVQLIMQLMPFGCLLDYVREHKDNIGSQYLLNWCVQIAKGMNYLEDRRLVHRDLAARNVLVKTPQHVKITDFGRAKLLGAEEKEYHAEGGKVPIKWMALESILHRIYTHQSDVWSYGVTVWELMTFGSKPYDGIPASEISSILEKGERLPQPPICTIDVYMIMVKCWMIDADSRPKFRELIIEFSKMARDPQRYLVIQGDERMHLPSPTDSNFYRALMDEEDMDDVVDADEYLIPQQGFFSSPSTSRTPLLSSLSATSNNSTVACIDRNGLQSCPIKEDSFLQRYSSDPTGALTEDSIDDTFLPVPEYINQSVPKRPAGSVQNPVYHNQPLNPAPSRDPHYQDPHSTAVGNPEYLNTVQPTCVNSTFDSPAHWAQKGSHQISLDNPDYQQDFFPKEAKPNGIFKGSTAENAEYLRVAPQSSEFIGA
Summary of the method: as §1

[3] = molecular target: T3, IGF-1R (Homo sapiens, UniProt P08069); experiment: kinase inhibitory activity test (ELISA), IGF-1R; type: biochemical; settings: ATP 5 μM, 1 hour at 37° C.
T3 construct: purchased Millipore
T3 sequence (P08069 31-1367): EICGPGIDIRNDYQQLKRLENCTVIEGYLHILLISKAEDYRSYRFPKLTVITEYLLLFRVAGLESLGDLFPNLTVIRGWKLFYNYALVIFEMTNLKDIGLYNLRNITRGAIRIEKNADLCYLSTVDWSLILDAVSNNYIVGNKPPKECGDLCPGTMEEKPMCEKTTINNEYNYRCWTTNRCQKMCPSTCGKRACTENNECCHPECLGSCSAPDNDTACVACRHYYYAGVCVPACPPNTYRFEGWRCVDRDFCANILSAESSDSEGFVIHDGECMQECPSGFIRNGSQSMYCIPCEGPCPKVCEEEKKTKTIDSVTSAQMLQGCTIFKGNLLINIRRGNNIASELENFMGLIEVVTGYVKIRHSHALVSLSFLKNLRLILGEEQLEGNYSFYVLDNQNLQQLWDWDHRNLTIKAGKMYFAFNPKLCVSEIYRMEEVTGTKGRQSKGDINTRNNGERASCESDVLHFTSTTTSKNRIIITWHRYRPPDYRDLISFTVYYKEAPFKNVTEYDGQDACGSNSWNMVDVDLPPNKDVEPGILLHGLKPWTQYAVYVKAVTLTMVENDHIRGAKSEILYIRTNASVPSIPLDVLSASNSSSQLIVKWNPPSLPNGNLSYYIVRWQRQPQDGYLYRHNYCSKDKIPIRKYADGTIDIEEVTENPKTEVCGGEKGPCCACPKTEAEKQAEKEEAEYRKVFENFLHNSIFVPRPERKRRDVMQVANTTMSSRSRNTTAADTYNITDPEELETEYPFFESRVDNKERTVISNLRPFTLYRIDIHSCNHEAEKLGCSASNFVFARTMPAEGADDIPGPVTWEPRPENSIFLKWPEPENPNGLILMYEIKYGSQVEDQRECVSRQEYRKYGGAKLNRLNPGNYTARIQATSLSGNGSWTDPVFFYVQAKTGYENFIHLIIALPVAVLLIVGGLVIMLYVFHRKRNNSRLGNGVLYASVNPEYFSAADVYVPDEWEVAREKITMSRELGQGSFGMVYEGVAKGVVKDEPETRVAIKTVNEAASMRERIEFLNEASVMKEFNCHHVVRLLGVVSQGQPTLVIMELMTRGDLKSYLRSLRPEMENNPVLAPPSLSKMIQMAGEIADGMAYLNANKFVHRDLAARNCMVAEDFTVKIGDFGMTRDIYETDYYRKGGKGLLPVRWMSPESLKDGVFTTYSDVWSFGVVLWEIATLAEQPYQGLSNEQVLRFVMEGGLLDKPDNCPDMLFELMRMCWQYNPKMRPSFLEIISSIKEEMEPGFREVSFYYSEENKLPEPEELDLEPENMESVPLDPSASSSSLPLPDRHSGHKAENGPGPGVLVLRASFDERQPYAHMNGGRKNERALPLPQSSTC
Summary of the method: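 Poly(Glu,Tyr)4:1-coated plates; kinase reacted 1 h at 37 °C with 5 μM ATP (final) in HEPES pH 7.4 buffer with Mg2+/Mn2+. Phosphotyrosine detected by PY99 and HRP anti-mouse IgG with OPD at 490 nm; IC50 from four-parameter fit.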

[4] = test system: human epidermal carcinoma A431 cell line; experiment: SRB proliferation assay, A431 cells; type: cell-based; settings: A-431, SRB, 72 h, read-out: IC50 A431
Summary of the method: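 A431 cells in log phase are allowed to adhere for 24 h, then exposed to compound for 72 h in triplicate alongside DMSO controls. Cells are fixed with cold 10% TCA, stained with SRB, dye is solubilised in 10 mM Tris pH 10.5, and OD is read at 515 nm.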

[5] = test system: human non-small cell lung cancer NCI-H1975 cell line; experiment: SRB proliferation assay, NCI-H1975 cells; type: cell-based; settings: NCI-H1975, SRB, 72 h, read-out: IC50 NCI-H1975
Summary of the method: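 NCI-H1975 cells in log phase were allowed to adhere for 24 h, then treated with compound in triplicate for 72 h. Cells were TCA-fixed and SRB-stained, with OD read at 515 nm; IC50 derived from growth inhibition versus DMSO control.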

T1 sequence (P00533 25-1210): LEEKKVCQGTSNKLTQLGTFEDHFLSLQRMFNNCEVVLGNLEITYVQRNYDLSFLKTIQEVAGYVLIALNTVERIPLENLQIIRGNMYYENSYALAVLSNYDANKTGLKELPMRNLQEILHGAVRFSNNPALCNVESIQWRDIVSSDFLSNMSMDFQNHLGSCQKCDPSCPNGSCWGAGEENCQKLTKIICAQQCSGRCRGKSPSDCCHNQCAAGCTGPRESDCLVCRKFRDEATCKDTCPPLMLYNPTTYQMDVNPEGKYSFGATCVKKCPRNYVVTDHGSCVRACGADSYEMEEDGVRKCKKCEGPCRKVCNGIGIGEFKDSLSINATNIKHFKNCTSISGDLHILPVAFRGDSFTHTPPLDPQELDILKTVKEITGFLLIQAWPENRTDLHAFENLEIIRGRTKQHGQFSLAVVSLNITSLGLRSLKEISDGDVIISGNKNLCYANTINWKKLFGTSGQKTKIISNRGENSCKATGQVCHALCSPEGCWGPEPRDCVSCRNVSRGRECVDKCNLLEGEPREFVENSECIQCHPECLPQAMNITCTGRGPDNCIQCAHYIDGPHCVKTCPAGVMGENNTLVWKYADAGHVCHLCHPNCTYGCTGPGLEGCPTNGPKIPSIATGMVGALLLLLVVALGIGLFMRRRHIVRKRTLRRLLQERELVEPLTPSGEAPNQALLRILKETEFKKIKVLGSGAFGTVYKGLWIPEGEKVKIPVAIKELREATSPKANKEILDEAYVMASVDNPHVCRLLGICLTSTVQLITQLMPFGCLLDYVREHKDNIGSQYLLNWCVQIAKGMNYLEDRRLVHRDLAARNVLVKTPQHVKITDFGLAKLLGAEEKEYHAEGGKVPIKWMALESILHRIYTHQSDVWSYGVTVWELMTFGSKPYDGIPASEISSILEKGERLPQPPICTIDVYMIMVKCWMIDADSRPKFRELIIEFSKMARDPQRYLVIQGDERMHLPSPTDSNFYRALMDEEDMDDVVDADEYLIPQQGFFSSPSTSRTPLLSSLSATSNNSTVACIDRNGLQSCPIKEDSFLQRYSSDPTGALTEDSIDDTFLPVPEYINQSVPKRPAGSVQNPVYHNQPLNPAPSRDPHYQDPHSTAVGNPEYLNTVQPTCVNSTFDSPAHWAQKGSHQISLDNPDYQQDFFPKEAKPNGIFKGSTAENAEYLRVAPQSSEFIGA

| IC50 [1] [nM] | IC50 [2] [nM] | IC50 [3] [nM] | IC50 [4] [nM] | IC50 [5] [nM] | Compound |
| --- | --- | --- | --- | --- | --- |
| 4480 | 73.2 | 48.3 | 2190 | 959 | Cc1ccc(NC(=O)/C=C/CN(C)C)cc1Nc1ncc(Br)c(Nc2ccc3ccccc3c2)n1 [CCB145339, (E)-N-((3-((5-bromo-4-((naphthalen-2-yl)amino))pyrimidin-2-yl)amino)-4-methylphenyl)-4-(dimethylamino)-2-butenamide] |
| 2220 | 28.7 | 117 | 1610 | 864 | Cc1ccc(NC(=O)/C=C/CN(C)C)cc1Nc1ncc(Cl)c(Nc2ccc3ccccc3c2)n1 [CCB145340] |
| 1880 | 44.2 | 127 | 942 | 1260 | Cc1cc(NC(=O)/C=C/CN(C)C)cc(Nc2ncc(Br)c(Nc3ccc4ccccc4c3)n2)c1 [CCB145342, (E)-N-((3-((5-bromo-4-((naphthalen-2-yl)amino))pyrimidin-2-yl)amino)-5-methylphenyl)-4-(dimethylamino)-2-butenamide] |
| 613 | 46.3 | 36 | 775 | 925 | Cc1cc(NC(=O)/C=C/CN(C)C)cc(Nc2ncc(Cl)c(Nc3ccc4ccccc4c3)n2)c1 [CCB145344, (E)-N-((3-((5-chloro-4-((naphthalen-2-yl)amino))pyrimidin-2-yl)amino)-5-methylphenyl)-4-(dimethylamino)-2-butenamide] |
| 1150 | 56.2 | 200 | 1040 | 598 | Cc1ccc(Nc2ncc(Cl)c(Nc3ccc4ccccc4c3)n2)cc1NC(=O)/C=C/CN(C)C [CCB145346, (E)-N-((5-((5-chloro-4-((naphthalen-2-yl)amino))pyrimidin-2-yl)amino)-2-methylphenyl)-4-(dimethylamino)-2-butenamide] |
| 470 | 42.5 | 157 | 4660 | 1100 | Cc1ccc(Nc2ncc(Br)c(Nc3ccc4ccccc4c3)n2)cc1NC(=O)/C=C/CN(C)C [CCB145348, (E)-N-((5-((5-bromo-4-((naphthalen-2-yl)amino))pyrimidin-2-yl)amino)-2-methylphenyl)-4-(dimethylamino)-2-butenamide] |
| 1460 | 25.6 | 163 | 6260 | 1180 | CCOc1ccc(NC(=O)/C=C/CN(C)C)cc1Nc1ncc(Cl)c(Nc2ccc3ccccc3c2)n1 [CCB145373, (E)-N-((3-((5-chloro-4-((naphthalen-2-yl)amino))pyrimidin-2-yl)amino)-4-ethoxyphenyl)-4-(dimethylamino)-2-butenamide] |
| 2830 | 11.3 | 86.4 | 4470 | 2820 | CCOc1ccc(NC(=O)/C=C/CN(C)C)cc1Nc1ncc(Br)c(Nc2ccc3ccccc3c2)n1 [CCB145374, (E)-N-((3-((5-bromo-4-((naphthalen-2-yl)amino))pyrimidin-2-yl)amino)-4-ethoxyphenyl)-4-(dimethylamino)-2-butenamide] |
| 1060 | 6.7 | 195 | 1670 | 429 | COc1cc(F)c(NC(=O)/C=C/CN(C)C)cc1Nc1ncc(Cl)c(Nc2ccc3ccccc3c2)n1 [CCB145380, (E)-N-((5-((5-chloro-4-((naphthalen-2-yl)amino))pyrimidin-2-yl)amino)-2-fluoro-4-methoxyphenyl)-4-(dimethylamino)-2-butenamide] |
| 3540 | 7.5 | 102 | 1790 | 508 | COc1cc(F)c(NC(=O)/C=C/CN(C)C)cc1Nc1ncc(Br)c(Nc2ccc3ccccc3c2)n1 [CCB145381, (E)-N-((5-((5-bromo-4-((naphthalen-2-yl)amino))pyrimidin-2-yl)amino)-2-fluoro-4-methoxyphenyl)-4-(dimethylamino)-2-butenamide] |
| 2680 | 266 | 272 | 671 | 1970 | CC(C)Oc1ccc(NC(=O)/C=C/CN(C)C)cc1Nc1ncc(Cl)c(Nc2ccc3ccccc3c2)n1 [CCB145384, (E)-N-((3-((5-chloro-4-((naphthalen-2-yl)amino))pyrimidin-2-yl)amino)-4-isopropoxyphenyl)-4-(dimethylamino)-2-butenamide] |
| 3620 | 177 | 316 | 7580 | 5740 | CC(C)Oc1ccc(NC(=O)/C=C/CN(C)C)cc1Nc1ncc(Br)c(Nc2ccc3ccccc3c2)n1 [CCB145385, (E)-N-((3-((5-bromo-4-((naphthalen-2-yl)amino))pyrimidin-2-yl)amino)-4-isopropoxyphenyl)-4-(dimethylamino)-2-butenamide] |

— US10059694B2, “2-aminopyrimidine compound and pharmaceutical composition and use thereof” (Shanghai Institute of Materia Medica, Chinese Academy of …, priority 2014, dated 2018)
